The test system of one assay is 435261-313-R-J1-PDC complex spheroid viability. The experiment in a line: Anticancer human tumor 435261-313-R-J1-PDC patient-derived colon adenocarcinoma cell line growth inhibition [GQUAD]. To be noted: second compound 3.16 µM; first compound 0.1 µM; stronger effect = lower value. The procedure, abridged:
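Multi-cell-type spheroids of tumor cells with HUVEC and mesenchymal stem cells, treated with drug combinations. Concentrations descend in half-log steps from near clinical Cmax, or from 10 microM where Cmax is unknown; viability read-out.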
What is called viability, T/C is the ratio of treated to control. `CC1COCCN1c1cc(-c2ccnn2C)c2ccnc(-c3ccn[nH]3)c2n1` (stereo not drawn) + Cc1cnc(CNC(=O)c2c(=O)c3ccc(N4CCCN(C)CC4)nc3n3c2sc2ccccc23)cn1: the viability, T/C is 21.2%.
For `CC1COCCN1c1cc(C2(S(C)(=N)=O)CC2)nc(-c2ccnc3[nH]ccc23)n1` (stereo not drawn) + Cc1cnc(CNC(=O)c2c(=O)c3ccc(N4CCCN(C)CC4)nc3n3c2sc2ccccc23)cn1, the viability, T/C is 10.2%.
Still for that read-out and setting: with `COc1ccc([C@@H](O)c2cc(-c3ncnc4cc(N5CCOCC5)ccc34)c(F)cc2Cl)nn1` + Cc1cnc(CNC(=O)c2c(=O)c3ccc(N4CCCN(C)CC4)nc3n3c2sc2ccccc23)cn1 the figure was 14.9%.

The same assay, now with this note: second compound 3.16 µM; first compound 0.316 µM; stronger effect = lower value.
Take `O=C(NO)c1cnc(N2CCN(S(=O)(=O)c3ccc4ccccc4c3)CC2)nc1` + Cc1[nH]c2ccc(F)cc2c1-c1nc2c3cccnc3c3ncccc3c2[nH]1: the viability, T/C is 27%.
For `CC(C)n1c(=O)n(C)c2cnc3cc(F)c(-c4ccc(OCCCN5CCCCC5)nc4)cc3c21` + Cc1cnc(CNC(=O)c2c(=O)c3ccc(N4CCCN(C)CC4)nc3n3c2sc2ccccc23)cn1, the viability, T/C was 7.48%.
For the molecule `CC1COCCN1c1cc(-c2ccnn2C)c2ccnc(-c3ccn[nH]3)c2n1` (stereo not drawn) + Cc1cnc(CNC(=O)c2c(=O)c3ccc(N4CCCN(C)CC4)nc3n3c2sc2ccccc23)cn1, the viability, T/C was 11.5%.
Turning to `CC1COCCN1c1cc(C2(S(C)(=N)=O)CC2)nc(-c2ccnc3[nH]ccc23)n1` (stereo not drawn) + Cc1cnc(CNC(=O)c2c(=O)c3ccc(N4CCCN(C)CC4)nc3n3c2sc2ccccc23)cn1, the viability, T/C was 21%.
In the case of `COc1ccc([C@@H](O)c2cc(-c3ncnc4cc(N5CCOCC5)ccc34)c(F)cc2Cl)nn1` + Cc1cnc(CNC(=O)c2c(=O)c3ccc(N4CCCN(C)CC4)nc3n3c2sc2ccccc23)cn1, the viability, T/C is 16.5%.

The assay is the same for the next values; noted with them: second compound 3.16 µM; first compound 1 µM; stronger effect = lower value.
As to `O=C(NO)c1cnc(N2CCN(S(=O)(=O)c3ccc4ccccc4c3)CC2)nc1` + Cc1[nH]c2ccc(F)cc2c1-c1nc2c3cccnc3c3ncccc3c2[nH]1, the viability, T/C is 30.6%.
On the same count and under the same terms, the result for `CC(C)n1c(=O)n(C)c2cnc3cc(F)c(-c4ccc(OCCCN5CCCCC5)nc4)cc3c21` + Cc1cnc(CNC(=O)c2c(=O)c3ccc(N4CCCN(C)CC4)nc3n3c2sc2ccccc23)cn1 reads 16.6%; that for `CC1COCCN1c1cc(-c2ccnn2C)c2ccnc(-c3ccn[nH]3)c2n1` (stereo not drawn) + Cc1cnc(CNC(=O)c2c(=O)c3ccc(N4CCCN(C)CC4)nc3n3c2sc2ccccc23)cn1, 4.04%.
As to `CC1COCCN1c1cc(C2(S(C)(=N)=O)CC2)nc(-c2ccnc3[nH]ccc23)n1` (stereo not drawn) + Cc1cnc(CNC(=O)c2c(=O)c3ccc(N4CCCN(C)CC4)nc3n3c2sc2ccccc23)cn1, the viability, T/C was 18.6%.
For `COc1ccc([C@@H](O)c2cc(-c3ncnc4cc(N5CCOCC5)ccc34)c(F)cc2Cl)nn1` + Cc1cnc(CNC(=O)c2c(=O)c3ccc(N4CCCN(C)CC4)nc3n3c2sc2ccccc23)cn1, the viability, T/C was 0.16%.

Still in this assay, the particulars now being: second compound 3.16 µM; first compound 3.16 µM; stronger effect = lower value.
Regarding `O=C(NO)c1cnc(N2CCN(S(=O)(=O)c3ccc4ccccc4c3)CC2)nc1` + Cc1[nH]c2ccc(F)cc2c1-c1nc2c3cccnc3c3ncccc3c2[nH]1, the viability, T/C is 0.41%.
Take `CC(C)n1c(=O)n(C)c2cnc3cc(F)c(-c4ccc(OCCCN5CCCCC5)nc4)cc3c21` + Cc1cnc(CNC(=O)c2c(=O)c3ccc(N4CCCN(C)CC4)nc3n3c2sc2ccccc23)cn1: the viability, T/C was 5.15%.
Regarding `CC1COCCN1c1cc(-c2ccnn2C)c2ccnc(-c3ccn[nH]3)c2n1` (stereo not drawn) + Cc1cnc(CNC(=O)c2c(=O)c3ccc(N4CCCN(C)CC4)nc3n3c2sc2ccccc23)cn1, the viability, T/C was 3.7%.
Same read-out and setting: with `CC1COCCN1c1cc(C2(S(C)(=N)=O)CC2)nc(-c2ccnc3[nH]ccc23)n1` (stereo not drawn) + Cc1cnc(CNC(=O)c2c(=O)c3ccc(N4CCCN(C)CC4)nc3n3c2sc2ccccc23)cn1 the figure was 17.3%; with `COc1ccc([C@@H](O)c2cc(-c3ncnc4cc(N5CCOCC5)ccc34)c(F)cc2Cl)nn1` + Cc1cnc(CNC(=O)c2c(=O)c3ccc(N4CCCN(C)CC4)nc3n3c2sc2ccccc23)cn1, 0.14%.

The same assay, now with this note: second compound 3.16 µM; first compound 10 µM; stronger effect = lower value.
As for `O=C(NO)c1cnc(N2CCN(S(=O)(=O)c3ccc4ccccc4c3)CC2)nc1` + Cc1[nH]c2ccc(F)cc2c1-c1nc2c3cccnc3c3ncccc3c2[nH]1, the viability, T/C is 0.14%.
As for `CC(C)n1c(=O)n(C)c2cnc3cc(F)c(-c4ccc(OCCCN5CCCCC5)nc4)cc3c21` + Cc1cnc(CNC(=O)c2c(=O)c3ccc(N4CCCN(C)CC4)nc3n3c2sc2ccccc23)cn1, the viability, T/C was 0.23%.
Turning to `CC1COCCN1c1cc(-c2ccnn2C)c2ccnc(-c3ccn[nH]3)c2n1` (stereo not drawn) + Cc1cnc(CNC(=O)c2c(=O)c3ccc(N4CCCN(C)CC4)nc3n3c2sc2ccccc23)cn1, the viability, T/C was 2.53%.
On the same count and under the same terms, the result for `CC1COCCN1c1cc(C2(S(C)(=N)=O)CC2)nc(-c2ccnc3[nH]ccc23)n1` (stereo not drawn) + Cc1cnc(CNC(=O)c2c(=O)c3ccc(N4CCCN(C)CC4)nc3n3c2sc2ccccc23)cn1 reads 5.09%.
The same measure, in the same setting: with `COc1ccc([C@@H](O)c2cc(-c3ncnc4cc(N5CCOCC5)ccc34)c(F)cc2Cl)nn1` + Cc1cnc(CNC(=O)c2c(=O)c3ccc(N4CCCN(C)CC4)nc3n3c2sc2ccccc23)cn1 the figure was 0.29%.

The same assay, now with this note: second compound 10 µM; first compound 0.0316 µM; stronger effect = lower value.
As to `O=C(NO)c1cnc(N2CCN(S(=O)(=O)c3ccc4ccccc4c3)CC2)nc1` + Cc1[nH]c2ccc(F)cc2c1-c1nc2c3cccnc3c3ncccc3c2[nH]1, the viability, T/C was 29.7%.
`CC(C)n1c(=O)n(C)c2cnc3cc(F)c(-c4ccc(OCCCN5CCCCC5)nc4)cc3c21` + Cc1cnc(CNC(=O)c2c(=O)c3ccc(N4CCCN(C)CC4)nc3n3c2sc2ccccc23)cn1: the viability, T/C was 0.18%.
Take `CC1COCCN1c1cc(-c2ccnn2C)c2ccnc(-c3ccn[nH]3)c2n1` (stereo not drawn) + Cc1cnc(CNC(=O)c2c(=O)c3ccc(N4CCCN(C)CC4)nc3n3c2sc2ccccc23)cn1: the viability, T/C was 0.11%.
Still for that read-out and setting: with `CC1COCCN1c1cc(C2(S(C)(=N)=O)CC2)nc(-c2ccnc3[nH]ccc23)n1` (stereo not drawn) + Cc1cnc(CNC(=O)c2c(=O)c3ccc(N4CCCN(C)CC4)nc3n3c2sc2ccccc23)cn1 the figure was 0.26%.
On to `COc1ccc([C@@H](O)c2cc(-c3ncnc4cc(N5CCOCC5)ccc34)c(F)cc2Cl)nn1` + Cc1cnc(CNC(=O)c2c(=O)c3ccc(N4CCCN(C)CC4)nc3n3c2sc2ccccc23)cn1, for which the viability, T/C is 0.11%.

The same assay, now with this note: second compound 10 µM; first compound 0.1 µM; stronger effect = lower value.
Turning to `O=C(NO)c1cnc(N2CCN(S(=O)(=O)c3ccc4ccccc4c3)CC2)nc1` + Cc1[nH]c2ccc(F)cc2c1-c1nc2c3cccnc3c3ncccc3c2[nH]1, the viability, T/C was 28.4%.
For `CC(C)n1c(=O)n(C)c2cnc3cc(F)c(-c4ccc(OCCCN5CCCCC5)nc4)cc3c21` + Cc1cnc(CNC(=O)c2c(=O)c3ccc(N4CCCN(C)CC4)nc3n3c2sc2ccccc23)cn1, the viability, T/C was 0.2%.
Regarding `CC1COCCN1c1cc(-c2ccnn2C)c2ccnc(-c3ccn[nH]3)c2n1` (stereo not drawn) + Cc1cnc(CNC(=O)c2c(=O)c3ccc(N4CCCN(C)CC4)nc3n3c2sc2ccccc23)cn1, the viability, T/C was 0.14%.
For the molecule `CC1COCCN1c1cc(C2(S(C)(=N)=O)CC2)nc(-c2ccnc3[nH]ccc23)n1` (stereo not drawn) + Cc1cnc(CNC(=O)c2c(=O)c3ccc(N4CCCN(C)CC4)nc3n3c2sc2ccccc23)cn1, the viability, T/C was 0.15%.
For `COc1ccc([C@@H](O)c2cc(-c3ncnc4cc(N5CCOCC5)ccc34)c(F)cc2Cl)nn1` + Cc1cnc(CNC(=O)c2c(=O)c3ccc(N4CCCN(C)CC4)nc3n3c2sc2ccccc23)cn1, the viability, T/C was 0.16%.

The assay is the same for the next values; noted with them: second compound 10 µM; first compound 0.316 µM; stronger effect = lower value.
With `O=C(NO)c1cnc(N2CCN(S(=O)(=O)c3ccc4ccccc4c3)CC2)nc1` + Cc1[nH]c2ccc(F)cc2c1-c1nc2c3cccnc3c3ncccc3c2[nH]1, the viability, T/C was 20.8%.
For `CC(C)n1c(=O)n(C)c2cnc3cc(F)c(-c4ccc(OCCCN5CCCCC5)nc4)cc3c21` + Cc1cnc(CNC(=O)c2c(=O)c3ccc(N4CCCN(C)CC4)nc3n3c2sc2ccccc23)cn1, the viability, T/C was 0.2%.
`CC1COCCN1c1cc(-c2ccnn2C)c2ccnc(-c3ccn[nH]3)c2n1` (stereo not drawn) + Cc1cnc(CNC(=O)c2c(=O)c3ccc(N4CCCN(C)CC4)nc3n3c2sc2ccccc23)cn1: the viability, T/C was 0.18%.
On to `CC1COCCN1c1cc(C2(S(C)(=N)=O)CC2)nc(-c2ccnc3[nH]ccc23)n1` (stereo not drawn) + Cc1cnc(CNC(=O)c2c(=O)c3ccc(N4CCCN(C)CC4)nc3n3c2sc2ccccc23)cn1, for which the viability, T/C is 0.17%.
`COc1ccc([C@@H](O)c2cc(-c3ncnc4cc(N5CCOCC5)ccc34)c(F)cc2Cl)nn1` + Cc1cnc(CNC(=O)c2c(=O)c3ccc(N4CCCN(C)CC4)nc3n3c2sc2ccccc23)cn1: the viability, T/C was 0.16%.

The same assay, now with this note: second compound 10 µM; first compound 1 µM; stronger effect = lower value.
As for `O=C(NO)c1cnc(N2CCN(S(=O)(=O)c3ccc4ccccc4c3)CC2)nc1` + Cc1[nH]c2ccc(F)cc2c1-c1nc2c3cccnc3c3ncccc3c2[nH]1, the viability, T/C is 12.5%.
As for `CC(C)n1c(=O)n(C)c2cnc3cc(F)c(-c4ccc(OCCCN5CCCCC5)nc4)cc3c21` + Cc1cnc(CNC(=O)c2c(=O)c3ccc(N4CCCN(C)CC4)nc3n3c2sc2ccccc23)cn1, the viability, T/C was 0.18%.
As for `CC1COCCN1c1cc(-c2ccnn2C)c2ccnc(-c3ccn[nH]3)c2n1` (stereo not drawn) + Cc1cnc(CNC(=O)c2c(=O)c3ccc(N4CCCN(C)CC4)nc3n3c2sc2ccccc23)cn1, the viability, T/C is 0.15%.
Consider `CC1COCCN1c1cc(C2(S(C)(=N)=O)CC2)nc(-c2ccnc3[nH]ccc23)n1` (stereo not drawn) + Cc1cnc(CNC(=O)c2c(=O)c3ccc(N4CCCN(C)CC4)nc3n3c2sc2ccccc23)cn1, for which the viability, T/C was 0.18%.
For the molecule `COc1ccc([C@@H](O)c2cc(-c3ncnc4cc(N5CCOCC5)ccc34)c(F)cc2Cl)nn1` + Cc1cnc(CNC(=O)c2c(=O)c3ccc(N4CCCN(C)CC4)nc3n3c2sc2ccccc23)cn1, the viability, T/C is 0.2%.

Staying with this assay, now noted: second compound 10 µM; first compound 3.16 µM; stronger effect = lower value.
`O=C(NO)c1cnc(N2CCN(S(=O)(=O)c3ccc4ccccc4c3)CC2)nc1` + Cc1[nH]c2ccc(F)cc2c1-c1nc2c3cccnc3c3ncccc3c2[nH]1: the viability, T/C was 0.86%.
Same read-out and setting: the result for `CC(C)n1c(=O)n(C)c2cnc3cc(F)c(-c4ccc(OCCCN5CCCCC5)nc4)cc3c21` + Cc1cnc(CNC(=O)c2c(=O)c3ccc(N4CCCN(C)CC4)nc3n3c2sc2ccccc23)cn1 reads 0.29%; that for `CC1COCCN1c1cc(-c2ccnn2C)c2ccnc(-c3ccn[nH]3)c2n1` (stereo not drawn) + Cc1cnc(CNC(=O)c2c(=O)c3ccc(N4CCCN(C)CC4)nc3n3c2sc2ccccc23)cn1, 0.16%; that for `CC1COCCN1c1cc(C2(S(C)(=N)=O)CC2)nc(-c2ccnc3[nH]ccc23)n1` (stereo not drawn) + Cc1cnc(CNC(=O)c2c(=O)c3ccc(N4CCCN(C)CC4)nc3n3c2sc2ccccc23)cn1, 0.2%.
The same measure, in the same setting: the result for `COc1ccc([C@@H](O)c2cc(-c3ncnc4cc(N5CCOCC5)ccc34)c(F)cc2Cl)nn1` + Cc1cnc(CNC(=O)c2c(=O)c3ccc(N4CCCN(C)CC4)nc3n3c2sc2ccccc23)cn1 reads 0.17%.

The same assay, now with this note: second compound 10 µM; first compound 10 µM; stronger effect = lower value.
Take `O=C(NO)c1cnc(N2CCN(S(=O)(=O)c3ccc4ccccc4c3)CC2)nc1` + Cc1[nH]c2ccc(F)cc2c1-c1nc2c3cccnc3c3ncccc3c2[nH]1: the viability, T/C is 0.16%.
As to `CC(C)n1c(=O)n(C)c2cnc3cc(F)c(-c4ccc(OCCCN5CCCCC5)nc4)cc3c21` + Cc1cnc(CNC(=O)c2c(=O)c3ccc(N4CCCN(C)CC4)nc3n3c2sc2ccccc23)cn1, the viability, T/C was 0.16%.
Still for that read-out and setting: the result for `CC1COCCN1c1cc(-c2ccnn2C)c2ccnc(-c3ccn[nH]3)c2n1` (stereo not drawn) + Cc1cnc(CNC(=O)c2c(=O)c3ccc(N4CCCN(C)CC4)nc3n3c2sc2ccccc23)cn1 reads 0.15%; that for `CC1COCCN1c1cc(C2(S(C)(=N)=O)CC2)nc(-c2ccnc3[nH]ccc23)n1` (stereo not drawn) + Cc1cnc(CNC(=O)c2c(=O)c3ccc(N4CCCN(C)CC4)nc3n3c2sc2ccccc23)cn1, 0.21%.
The same measure, in the same setting: the result for `COc1ccc([C@@H](O)c2cc(-c3ncnc4cc(N5CCOCC5)ccc34)c(F)cc2Cl)nn1` + Cc1cnc(CNC(=O)c2c(=O)c3ccc(N4CCCN(C)CC4)nc3n3c2sc2ccccc23)cn1 reads 0.15%.
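Note: spheroids exposed to the agents for seven days before readout; percent of vehicle control viability with DMSO wells as 100%.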
